For this assay, the system named is P388. Kind of assay: Cytotoxicity against mouse P388 cells by microculture tetrazolium assay. The format is functional, cell-based.

SMILES strings stand for the structures. Converted amounts (≈) assume the structure as drawn.

The term IC50 denotes the concentration that inhibits the measured activity by half.

In the case of `CC(C)=CCC/C(C)=C/Cc1c2c(c(O)c3c(=O)c4c(oc13)-c1c(O)cc(O)c3c1C(C4)C(C)(C)O3)C=CC(C)(C)O2` (configuration not stated) [ARTOINDONESIANIN A], the half-maximal inhibitory concentration (IC50) was determined as 21 mg/L (≈ 36.8 µM).

Molecule `COc1cc2oc3c(c(=O)c2c(O)c1/C=C/C(C)C)CC(C(C)(C)OO)Oc1cc(O)ccc1-3` (configuration not stated) [ARTOINDONESIANIN B] gave an IC50 of 3.9 mg/L (≈ 8.32 µM).

These data come from ChEMBL document CHEMBL1141828, “Artoindonesianins A and B, two new prenylated flavones from the root of Artocarpus champeden” (J Nat Prod, 1999).
